Reference: ChEMBL document CHEMBL1201862, “PubChem BioAssay data set” (2004)
Active and inactive are the calls of the source.

Legend:
[1] = insulin promoter down-regulators in MIN6 cells, imaging, high-content screening, mouse beta cells (AID 1628); assay type: functional
[2] = cytotoxicity in MIN6 insulinoma cells, dose response, cytotoxicity control, cell-based, mouse insulinoma (AID 2122); assay type: functional;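 further: confirmatory high-throughput counterscreen run to flag cytotoxic compounds; mouse MIN-6 beta cells carrying an insulin promoter eGFP reporter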
[3] = molecular target: Large T antigen (Simian virus 40, UniProt P03070); assay type: functional, Betapolyomavirus macacae;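 further: Confirmatory-stage PubChem screen for compounds that inhibit SV40 T antigen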
[4] = molecular target: T1, Exodeoxyribonuclease V (Escherichia coli (strain K12), UniProt P04993+P07648+P08394); experiment: E. coli RecBCD inhibitors, dose response, counter-screen for AddAB inhibitor project, absorbance, V66 E. coli, mutant T4 phage (AID 492957); assay type: functional, cell-based, Escherichia coli str. K-12 substr. MG1655
T1 sequence (P04993 whole entry): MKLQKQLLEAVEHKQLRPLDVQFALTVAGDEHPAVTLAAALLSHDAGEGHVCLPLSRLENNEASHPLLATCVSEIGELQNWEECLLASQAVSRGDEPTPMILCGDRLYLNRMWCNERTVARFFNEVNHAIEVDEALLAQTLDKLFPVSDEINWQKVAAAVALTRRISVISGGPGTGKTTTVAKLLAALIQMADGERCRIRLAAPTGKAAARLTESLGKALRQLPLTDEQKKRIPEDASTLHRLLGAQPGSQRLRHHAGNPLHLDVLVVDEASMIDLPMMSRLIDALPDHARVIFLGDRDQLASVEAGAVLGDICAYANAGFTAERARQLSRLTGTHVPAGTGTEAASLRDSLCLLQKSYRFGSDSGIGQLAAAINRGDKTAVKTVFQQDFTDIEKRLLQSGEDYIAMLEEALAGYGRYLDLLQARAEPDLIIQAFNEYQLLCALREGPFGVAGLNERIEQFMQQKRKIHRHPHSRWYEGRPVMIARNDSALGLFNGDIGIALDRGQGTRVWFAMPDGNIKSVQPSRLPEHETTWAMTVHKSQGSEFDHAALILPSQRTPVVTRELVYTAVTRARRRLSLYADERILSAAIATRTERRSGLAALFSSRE
T1 sequence (P07648 whole entry): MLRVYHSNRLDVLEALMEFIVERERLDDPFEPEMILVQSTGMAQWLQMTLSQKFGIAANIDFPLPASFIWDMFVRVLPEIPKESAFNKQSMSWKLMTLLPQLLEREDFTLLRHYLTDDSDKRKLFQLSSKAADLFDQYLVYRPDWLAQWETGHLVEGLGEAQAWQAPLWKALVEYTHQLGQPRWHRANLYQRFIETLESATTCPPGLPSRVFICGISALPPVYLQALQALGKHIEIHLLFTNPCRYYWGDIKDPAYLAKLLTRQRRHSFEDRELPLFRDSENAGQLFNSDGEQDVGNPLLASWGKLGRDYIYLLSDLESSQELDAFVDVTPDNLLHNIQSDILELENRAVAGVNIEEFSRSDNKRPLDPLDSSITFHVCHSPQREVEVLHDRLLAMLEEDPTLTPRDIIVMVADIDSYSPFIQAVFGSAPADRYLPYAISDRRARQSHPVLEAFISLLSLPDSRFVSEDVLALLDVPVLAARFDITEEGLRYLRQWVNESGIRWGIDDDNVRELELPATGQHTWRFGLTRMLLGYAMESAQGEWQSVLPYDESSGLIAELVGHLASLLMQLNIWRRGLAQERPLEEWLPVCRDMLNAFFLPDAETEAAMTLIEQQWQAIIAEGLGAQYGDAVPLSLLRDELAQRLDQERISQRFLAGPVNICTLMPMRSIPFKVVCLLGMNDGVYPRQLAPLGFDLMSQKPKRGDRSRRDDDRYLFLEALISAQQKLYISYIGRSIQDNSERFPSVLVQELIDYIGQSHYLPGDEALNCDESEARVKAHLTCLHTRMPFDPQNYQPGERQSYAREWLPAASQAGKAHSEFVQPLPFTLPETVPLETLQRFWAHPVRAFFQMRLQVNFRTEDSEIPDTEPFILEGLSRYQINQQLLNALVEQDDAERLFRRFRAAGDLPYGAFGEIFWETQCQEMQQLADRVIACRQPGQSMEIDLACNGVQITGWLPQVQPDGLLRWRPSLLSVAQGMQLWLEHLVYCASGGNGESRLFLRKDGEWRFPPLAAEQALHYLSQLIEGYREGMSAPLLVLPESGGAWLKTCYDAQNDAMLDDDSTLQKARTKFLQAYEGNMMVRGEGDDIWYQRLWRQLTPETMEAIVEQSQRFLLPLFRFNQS
T1 sequence (P08394 whole entry): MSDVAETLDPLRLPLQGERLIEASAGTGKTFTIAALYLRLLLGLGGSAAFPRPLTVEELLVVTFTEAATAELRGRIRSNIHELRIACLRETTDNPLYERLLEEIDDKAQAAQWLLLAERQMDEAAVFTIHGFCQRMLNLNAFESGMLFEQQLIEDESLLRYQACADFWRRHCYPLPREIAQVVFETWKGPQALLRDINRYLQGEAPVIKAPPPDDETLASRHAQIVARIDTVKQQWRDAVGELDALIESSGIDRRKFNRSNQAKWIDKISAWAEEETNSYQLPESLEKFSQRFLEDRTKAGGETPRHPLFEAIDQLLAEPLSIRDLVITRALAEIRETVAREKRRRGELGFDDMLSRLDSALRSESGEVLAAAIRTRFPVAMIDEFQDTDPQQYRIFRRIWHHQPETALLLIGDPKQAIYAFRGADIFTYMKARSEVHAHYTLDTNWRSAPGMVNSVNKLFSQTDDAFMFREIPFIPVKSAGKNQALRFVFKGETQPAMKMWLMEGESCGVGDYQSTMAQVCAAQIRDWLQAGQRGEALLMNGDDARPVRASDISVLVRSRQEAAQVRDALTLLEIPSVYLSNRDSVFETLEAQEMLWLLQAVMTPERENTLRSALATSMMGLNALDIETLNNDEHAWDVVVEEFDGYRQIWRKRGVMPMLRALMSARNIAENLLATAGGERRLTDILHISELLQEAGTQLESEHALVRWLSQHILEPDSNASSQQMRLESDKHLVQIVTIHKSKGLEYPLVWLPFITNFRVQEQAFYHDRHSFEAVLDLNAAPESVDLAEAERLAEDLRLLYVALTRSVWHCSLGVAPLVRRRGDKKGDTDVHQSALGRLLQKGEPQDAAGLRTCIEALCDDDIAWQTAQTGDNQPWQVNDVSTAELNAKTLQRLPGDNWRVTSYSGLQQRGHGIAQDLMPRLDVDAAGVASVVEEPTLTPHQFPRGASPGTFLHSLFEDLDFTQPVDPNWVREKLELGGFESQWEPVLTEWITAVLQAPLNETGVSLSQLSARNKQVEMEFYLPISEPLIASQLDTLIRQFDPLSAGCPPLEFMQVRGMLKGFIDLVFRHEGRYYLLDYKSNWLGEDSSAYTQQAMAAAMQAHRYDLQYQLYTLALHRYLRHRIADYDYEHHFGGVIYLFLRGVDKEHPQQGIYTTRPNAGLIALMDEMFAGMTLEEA

[5] = Counterscreen for AddAB inhibitors: absorbance-based bacterial cell-based high throughput dose response assay for inhibitors of bacterial viability. [Related pubchem assays (depositor defined):AID435030, AID449728, AID449731, AID488942, AID488955, AID488956]; assay type: functional
[6] = molecular target: T2, Rac GTPase-activating protein 1 (Homo sapiens, UniProt Q9H0H5); experiment: MgcRacGAP GTPase-activating activity inhibitors, confirmation, biochemical, ADP Hunter fluorescence, primary and confirmatory (AID 624330); assay type: functional
T2 sequence (Q9H0H5 whole entry): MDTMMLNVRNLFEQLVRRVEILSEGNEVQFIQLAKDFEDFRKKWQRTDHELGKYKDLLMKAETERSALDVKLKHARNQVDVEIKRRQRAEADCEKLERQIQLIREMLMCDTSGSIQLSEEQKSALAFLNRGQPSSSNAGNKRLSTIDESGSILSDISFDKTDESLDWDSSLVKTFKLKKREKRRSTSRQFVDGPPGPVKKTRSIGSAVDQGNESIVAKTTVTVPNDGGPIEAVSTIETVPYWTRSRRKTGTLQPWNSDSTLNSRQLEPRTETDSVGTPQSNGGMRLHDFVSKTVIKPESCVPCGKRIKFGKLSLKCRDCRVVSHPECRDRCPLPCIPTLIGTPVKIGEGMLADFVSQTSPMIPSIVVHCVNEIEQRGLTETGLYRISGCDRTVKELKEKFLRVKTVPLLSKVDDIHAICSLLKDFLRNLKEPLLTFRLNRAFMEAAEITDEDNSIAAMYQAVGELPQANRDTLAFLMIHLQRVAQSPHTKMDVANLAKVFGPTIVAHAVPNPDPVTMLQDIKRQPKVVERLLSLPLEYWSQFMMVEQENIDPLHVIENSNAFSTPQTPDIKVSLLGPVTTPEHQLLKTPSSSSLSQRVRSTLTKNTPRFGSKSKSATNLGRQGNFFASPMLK

[7] = tested on: BJ; experiment: cytotoxicity toward BJ-TERT fibroblasts, dose response, cell-based, RAS-independent, luminescence (AID 1933); assay type: functional; settings: Homo sapiens
[8] = tested on: BJ; experiment: cells; assay type: functional, cell-based; settings: Homo sapiens
[9] = tested on: BJ; experiment: cytotoxicity toward BJ-TERT-LT-ST fibroblasts, dose response, cell-based, RAS-independent, luminescence (AID 1935); assay type: functional; settings: Homo sapiens;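 further: BJ fibroblasts immortalized with TERT plus LT and ST oncogenes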
[10] = cytotoxicity toward DRD oncogenic fibroblasts, dose response, cell-based, non-viral oncogenic, luminescence (AID 1934); assay type: functional; settings: Homo sapiens
[11] = tested on: BJ; experiment: cytotoxicity toward Ras-transformed BJeLR fibroblasts, dose response, cell-based, alamar blue fluorescence, cherrypicked samples (AID 2631); assay type: functional; settings: Homo sapiens;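 further: confirmatory dose-response assay in RAS-dependent BJ fibroblasts engineered with TERT, LT and ST, with cytotoxicity read by fluorescence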
[12] = tested on: INS1; experiment: beta cell apoptosis inhibitors, cytokine rescue, dose response, luminescence, retest (AID 449756); assay type: functional, cell-based; settings: Rattus norvegicus;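 further: cell death triggered by IL-1 beta plus TNF-alpha plus IFN-gamma mixture; protective hits raise ATP signal compared with cytokine alone wells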
[13] = inhibitors of firefly luciferase expression or activity, dose response, H4 neuroglioma cells, luminescence (AID 1990); assay type: functional, cell-based
[14] = Luminescence Cell-Based Dose Response HTS to Identify Inhibitors of 5'UTR Stem-Loop Driven Prion Protein mRNA Translation in H4 Neuroglioblastoma Cells. [Related pubchem assays: 1827 (Project Summary), 1813 (Primary HTS)]; assay type: functional
[15] = inhibitors of SNCA 5'UTR-driven reporter translation, confirmation, H4 neuroglioma cells, luminescence (AID 1988); assay type: functional, cell-based
[16] = molecular target: T3, Heat shock factor protein 1 (Mus musculus, UniProt P38532); experiment: inhibition of MG132-induced HSE-luciferase signal, confirmation, cell-based, NIH3T3, luminescence, dose retest (AID 2382); assay type: functional;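 further: NIH3T3 fibroblasts with HSF1-driven luciferase reporter stressed by proteasome inhibitor MG132; luminescence from HSF1-driven luciferase expression after 8 hours of MG132 stress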
T3 sequence (P38532 whole entry): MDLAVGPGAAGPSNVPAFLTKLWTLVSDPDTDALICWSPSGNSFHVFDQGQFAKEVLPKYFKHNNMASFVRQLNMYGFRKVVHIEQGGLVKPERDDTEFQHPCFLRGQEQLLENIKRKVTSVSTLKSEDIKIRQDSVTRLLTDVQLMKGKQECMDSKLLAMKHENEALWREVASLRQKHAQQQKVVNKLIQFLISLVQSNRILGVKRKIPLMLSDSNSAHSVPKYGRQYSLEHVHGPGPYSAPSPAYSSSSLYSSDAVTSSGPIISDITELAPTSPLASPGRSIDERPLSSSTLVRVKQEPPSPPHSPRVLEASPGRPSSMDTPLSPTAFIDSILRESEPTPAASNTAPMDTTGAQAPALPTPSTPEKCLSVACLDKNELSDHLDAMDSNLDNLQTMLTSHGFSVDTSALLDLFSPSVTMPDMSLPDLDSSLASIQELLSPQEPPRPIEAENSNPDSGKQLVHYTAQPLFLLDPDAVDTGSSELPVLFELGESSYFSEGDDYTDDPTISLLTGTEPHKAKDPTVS

[17] = molecular target: Glucose-6-phosphate 1-dehydrogenase (Homo sapiens, UniProt P11413); experiment: human G6PD enzyme inhibitors, dose response, selectivity assay for P. falciparum G6PD inhibitor project, biochemical, fluorescence (AID 504792); assay type: functional
Sequence of Glucose-6-phosphate 1-dehydrogenase (P11413 whole entry): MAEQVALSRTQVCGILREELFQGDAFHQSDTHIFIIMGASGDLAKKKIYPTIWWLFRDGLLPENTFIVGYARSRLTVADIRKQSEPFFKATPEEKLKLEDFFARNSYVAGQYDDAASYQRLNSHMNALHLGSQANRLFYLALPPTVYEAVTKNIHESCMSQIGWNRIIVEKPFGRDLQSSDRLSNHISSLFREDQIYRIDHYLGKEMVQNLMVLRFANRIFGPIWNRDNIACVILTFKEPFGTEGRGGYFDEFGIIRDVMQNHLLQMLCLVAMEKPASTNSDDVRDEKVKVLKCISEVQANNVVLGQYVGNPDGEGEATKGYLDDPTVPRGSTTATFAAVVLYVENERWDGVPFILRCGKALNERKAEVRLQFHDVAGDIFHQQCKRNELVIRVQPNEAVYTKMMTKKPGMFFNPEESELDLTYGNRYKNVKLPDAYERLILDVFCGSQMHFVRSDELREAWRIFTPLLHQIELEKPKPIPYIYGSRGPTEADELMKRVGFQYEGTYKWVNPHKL

Sequence of Large T antigen (P03070 whole entry): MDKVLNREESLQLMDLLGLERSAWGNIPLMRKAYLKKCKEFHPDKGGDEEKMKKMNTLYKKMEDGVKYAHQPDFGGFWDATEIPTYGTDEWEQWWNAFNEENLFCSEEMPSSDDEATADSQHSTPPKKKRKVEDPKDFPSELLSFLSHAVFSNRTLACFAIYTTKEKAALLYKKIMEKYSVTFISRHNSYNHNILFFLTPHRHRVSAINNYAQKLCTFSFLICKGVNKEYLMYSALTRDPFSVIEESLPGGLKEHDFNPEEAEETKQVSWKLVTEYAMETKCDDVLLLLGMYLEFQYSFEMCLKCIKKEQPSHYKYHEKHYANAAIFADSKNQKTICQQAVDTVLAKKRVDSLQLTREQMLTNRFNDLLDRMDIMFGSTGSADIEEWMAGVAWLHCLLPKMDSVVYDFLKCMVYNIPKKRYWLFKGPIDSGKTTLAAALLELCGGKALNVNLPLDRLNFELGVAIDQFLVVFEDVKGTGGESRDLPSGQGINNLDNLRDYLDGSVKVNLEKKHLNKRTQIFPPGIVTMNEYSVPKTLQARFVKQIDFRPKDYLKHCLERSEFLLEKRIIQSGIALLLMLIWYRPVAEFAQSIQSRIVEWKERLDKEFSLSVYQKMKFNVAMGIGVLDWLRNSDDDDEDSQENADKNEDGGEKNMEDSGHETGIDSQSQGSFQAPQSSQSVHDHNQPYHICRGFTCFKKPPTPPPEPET

SMILES: CC(C)Cc1nc2oc3c(NCC4CCCO4)ncnc3c2c2c1CCC2 (centres undefined)
- IC50 [1]: 1.4 µM (active)
- IC50 [2]: 4.96 µM (active)

SMILES: CC1(C)OC(=O)C(N=Nc2ccc(O)cc2)=C(O)O1
- IC50 [3]: 6.72 µM (active)
- IC50 [4]: > 119 µM (inactive)
- IC50 [5]: > 119 µM (inactive)
- IC50 [6]: 20.9 µM (active)

SMILES: CC(=O)Nc1ccc(NC(=O)CN(c2cccc([N+](=O)[O-])c2)S(C)(=O)=O)cc1
- EC50 [7]: > 150 µM (not active)
- EC50 [8]: 3.09 µM (inconclusive)
- EC50 [9]: > 150 µM (inconclusive)
- EC50 [10]: > 150 µM (inconclusive)
- EC50 [11]: 11.8 µM (active)
- AC50 [12]: 6.91 µM (active)

SMILES: CC(C)CCNc1nnnc2c1sc1nc(N3CCOCC3)c3c(c12)CC(C)(C)SC3
- EC50 [13]: 27.9 µM (active)
- IC50 [1]: 2.29 µM (active)
- EC50 [14]: > 120 µM (not active)
- IC50 [2]: 12.5 µM (inactive)
- EC50 [15]: > 120 µM (not active)

SMILES: Cc1nc2ccccn2c1-c1ccnn1S(=O)(=O)c1ccc(F)cc1
- EC50 [16]: > 195 µM (not active)
- IC50 [17]: > 80 µM (inactive)
